Our source for the DC50, Dmax and IC50 values is patent publication US20260166159A1, “KRAS G12D DEGRADATION AGENT, AND PREPARATION METHOD AND USE THEREFOR” (LEADINGTAC PHARMACEUTICAL (SHAOXING) CO., LTD., priority 2022, published 2026).

For assay [1], the target named is T1, KRAS-G12D (Homo sapiens, UniProt P01116, G12D).
T1 construct: endogenous in cells; host or cells: A-427 (ATCC), AGS, AsPc-1, Panc 04.03
Description: KRAS-G12D degradation assay (Western Blot), A-427 cells. It counts as cell-based. As to conditions: A427 cells, 24 h, numeric values. The essentials: (§1)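 Each KRAS G12D mutant line (A-427, AGS, AsPc-1, Panc 04.03) was seeded at 5×10^5 cells/well and treated 24 h at 37 °C with 0.03–3000 nM compound (final DMSO 0.25%). KRAS in lysates was measured by Western blot, normalized to β-actin and compared with controls, giving DC50 and Dmax from curve fits.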

For assay [2], the system named is KRAS G12D mutant human metastatic pancreatic cancer cell AsPc-1. Briefly: 3D cell proliferation inhibition assay, AsPc-1. Format: cell-based. To be noted: ASPC1, 168 h, AsPc-1, 7 days, CTG, numeric values. Summed up:
(§2)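 Cells seeded at 5×10^2 per well in low-adsorption plates with compounds at 10000–0.026 nM final (0.2% DMSO) and grown 7 days at 37 °C, 5% CO2. Viability by CellTiter-Glo luminescence after 60 min at room temperature; inhibition normalized to DMSO and medium-only controls, IC50 from nonlinear log-concentration fit.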

The test system of assay [3] is KRAS G12D mutant human pancreatic cancer cell HPAC. Description: 3D cell proliferation inhibition assay, HPAC. Format: cell-based. As to conditions: 168 h, 7 days, CTG. The essentials: as §2
For assay [4], the system named is KRAS G12D mutant human lung cancer cell A427. Briefly: 3D cell proliferation inhibition assay, A427. It counts as cell-based. To be noted: A-427, 168 h, A427, 7 days, CTG, numeric values. The essentials:
as §2

Assay [5] relates to KRAS G12D mutant human pancreatic cancer cell Panc 04.03. Briefly: 3D cell proliferation inhibition assay, Panc 04.03. It counts as cell-based. To be noted: 168 h, Panc 04.03, 7 days, CTG, numeric values. The essentials:
as §2

In assay [6] the test system is KRAS G12D mutant human gastric cancer cell AGS. Briefly: 3D cell proliferation inhibition assay, AGS. It counts as cell-based. As to conditions: 168 h, 7 days, CTG, numeric values. The essentials:
as §2

For assay [7], the target named is T1, KRAS-G12D. Description: KRAS-G12D degradation assay (Western Blot), AsPc-1 cells. To be noted: for DC50: 24 h; for Dmax: ASPC1, 24 h. It counts as cell-based. The essentials:
as §1

Assay [8] concerns the target T2, Human KRAS G12D 6His-tagged (Homo sapiens, UniProt P01116, G12D).
T2 construct: purchased PerkinElmer
Briefly: KRAS-G12D/GTP binding assay (HTRF). As to conditions: numeric values. Summed up: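 HTRF kit format: 6His-tagged KRAS G12D incubated with compound (final 0.02-5000 nM, 0.5% DMSO), anti-6His Eu cryptate antibody and GTP Red reagent for 1 h at 25° C. 665/620 nm ratio versus control gave inhibition rates; IC50 by nonlinear fit.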

T1 sequence (P01116 1-188 isoform P01116-2 G12D): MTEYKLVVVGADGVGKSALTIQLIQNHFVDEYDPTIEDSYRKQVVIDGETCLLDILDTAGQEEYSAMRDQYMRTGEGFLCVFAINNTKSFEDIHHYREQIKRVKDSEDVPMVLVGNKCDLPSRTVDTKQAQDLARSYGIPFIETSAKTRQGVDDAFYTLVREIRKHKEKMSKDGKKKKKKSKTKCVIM
T2 sequence (P01116 1-188 isoform P01116-2 G12D): as above

Consider `C#Cc1c(F)ccc2cc(O)cc(-c3ncc4c(N5CC6CCC(C5)N6)nc(OCC5(CN6CCN(CC7CCC8(CC7)CCN(C(=O)c7ccc(CC)c(N9CCC(=O)NC9=O)c7)CC8)CC6)CC5)nc4c3F)c12` [Example 243, 1-(5-(9-((4-((1-(((4-(3,8-diazabicyclo[3.2.1]octan-3-yl)-7-(8-ethynyl-7-fluoro-3-hydroxynaphthalen-1-yl)-8-fluoropyrido[4,3-d]pyrimidin-2-yl)oxy)methyl)cyclopropyl)methyl)piperazin-1-yl)methyl)-3-azaspiro[5.5]undecane-3-carbonyl)-2-ethylphenyl)dihydropyrimidine-2,4(1H,3H)-dione], for which it took 1.66 nM to reach half-maximal degradation on KRAS-G12D [1] (DC50). At KRAS-G12D [1] (A-427), the greatest degradation seen (Dmax) worked out at 92.9%. Also, the IC50 in assay [2] stood at 2.34 nM; in assay [3] it was 0.61 nM; in assay [4], 121 nM; in assay [5], 21.7 nM; in assay [6], 2.16 nM.
Take `C#Cc1c(F)ccc2cc(O)cc(-c3ncc4c(N5CC6CCC(C5)N6)nc(OCC5(CN6CCN(CC7CCC8(CCN(C(=O)c9ccc(C)c(N%10CCC(=O)NC%10=O)c9)CC8)CO7)CC6)CC5)nc4c3F)c12` (stereo not drawn) [Example 106, 1-(5-(3-((4-((1-(((4-(3,8-diazabicyclo[3.2.1]octan-3-yl)-7-(8-ethynyl-7-fluoro-3-hydroxynaphthalen-1-yl)-8-fluoropyrido[4,3-d]pyrimidin-2-yl)oxy)methyl)cyclopropyl)methyl)piperazin-1-yl)methyl)-2-oxa-9-azaspiro[5.5]undecane-9-carbonyl)-2-methylphenyl)dihydropyrimidine-2,4(1H,3H)-dione]: half-maximal degradation on KRAS-G12D [7] (DC50) was put at 10.5 nM. Moreover, on KRAS-G12D [7], the Dmax was determined as 99.5%. The IC50 came to 30.8 nM in assay [2], 152 nM in assay [3], 63.5 nM in assay [5] and 13.4 nM in assay [6].
At KRAS-G12D [7], `C#Cc1c(F)ccc2cc(O)cc(-c3ncc4c(N5CC6CCC(C5)N6)nc(OC[C@@H](CN5CCN(CC6CCC7(CC6)CCN(C(=O)c6ccc(OC)c(N8CCC(=O)NC8=O)c6)CC7)CC5)C(C)C)nc4c3F)c12` [Example 252, 1-(5-(9-((4-((R)-2-(((4-(3,8-diazabicyclo[3.2.1]octan-3-yl)-7-(8-ethynyl-7-fluoro-3-hydroxynaphthalen-1-yl)-8-fluoropyrido[4,3-d]pyrimidin-2-yl)oxy)methyl)-3-methylbutyl)piperazin-1-yl)methyl)-3-azaspiro[5.5]undecane-3-carbonyl)-2-methoxyphenyl)dihydropyrimidine-2,4(1H,3H)-dione] came in with a DC50 of 42.3 nM. The Dmax at KRAS-G12D [7] was determined as 100%. Also, the half-inhibitory concentration (IC50) in assay [2] amounted to 21 nM; in assay [3], 18.9 nM; in assay [5], 51 nM; in assay [6] it was 31.7 nM.
The molecule `C#Cc1c(F)ccc2cc(O)cc(-c3ccc4c(N5CC6CCC(C5)N6)nc(OCC(C)CN5CCN(CC6CCC7(CC6)CCN(C(=O)c6ccc(C)c(N8CCC(=O)NC8=O)c6)CC7)CC5)nc4c3F)c12` (stereo not drawn) [Example 174, 1-(5-(9-((4-(3-((4-(3,8-diazabicyclo[3.2.1]octan-3-yl)-7-(8-ethynyl-7-fluoro-3-hydroxynaphthalen-1-yl)-8-fluoroquinazolin-2-yl)oxy)-2-methylpropyl)piperazin-1-yl)methyl)-3-azaspiro[5.5]undecane-3-carbonyl)-2-methylphenyl)dihydropyrimidine-2,4(1H,3H)-dione] returned a DC50 on KRAS-G12D [7] of 13.6 nM. Further, the Dmax on KRAS-G12D [7] was determined as 100%. For the same molecule, the concentration for half-maximal inhibition (IC50) was 62.5 nM in assay [2]; 1.78 nM in assay [3]; 64.2 nM in assay [4]; 5.19 nM in assay [8]; 31.3 nM in assay [5]; 19.4 nM in assay [6].
The molecule `[2H]C([2H])([2H])Oc1ccc(C(=O)N2CCC3(CCC(CN4CCN(C[C@@H](C)COc5nc(N6CC7CCC(C6)N7)c6cnc(-c7cc(O)cc8ccc(F)c(C#C)c78)c(F)c6n5)CC4)CC3)CC2)cc1N1CCC(=O)NC1=O` [Example 253, 1-(5-(9-((4-((R)-3-((4-(3,8-diazabicyclo[3.2.1]octan-3-yl)-7-(8-ethynyl-7-fluoro-3-hydroxynaphthalen-1-yl)-8-fluoropyrido[4,3-d]pyrimidin-2-yl)oxy)-2-methylpropyl)piperazin-1-yl)methyl)-3-azaspiro[5.5]undecane-3-carbonyl)-2-(methoxy-d3)phenyl)dihydropyrimidine-2,4(1H,3H)-dione] came in with a 50% degradation concentration (DC50) on KRAS-G12D [7] of 1.39 nM. This molecule also registered a Dmax at KRAS-G12D [7] of 100%. Also, the IC50 in assay [2] worked out at 1.59 nM; in assay [3], 10.6 nM; in assay [5] it was 18.8 nM; in assay [6], 3.92 nM.
Turning to `C#Cc1c(F)ccc2cc(O)cc(-c3ncc4c(N5CC6CCC(C5)N6)nc(OC[C@H](C)CN5CCN(CC6CCC7(CC6)CCN(C(=O)c6ccc(Cl)c(N8CCC(=O)NC8=O)c6)CC7)CC5)nc4c3F)c12` [Example 102, 1-(5-(9-((4-((R)-3-((4-(3,8-diazabicyclo[3.2.1]octan-3-yl)-7-(8-ethynyl-7-fluoro-3-hydroxynaphthalen-1-yl)-8-fluoropyrido[4,3-d]pyrimidin-2-yl)oxy)-2-methylpropyl)piperazin-1-yl)methyl)-3-azaspiro[5.5]undecane-3-carbonyl)-2-chlorophenyl)dihydropyrimidine-2,4(1H,3H)-dione], it took 8.93 nM to reach half-maximal degradation at KRAS-G12D [7] (DC50). This molecule had a Dmax at KRAS-G12D [7] of 100%. In addition, the concentration for half-maximal inhibition (IC50) is 3.69 nM in assay [2], 13.5 nM in assay [3], 15.2 nM in assay [5] and 6.56 nM in assay [6].
